Test results: patent publication US5672715A, “Herbicidal substituted 3-aryl-pyrazoles” (Monsanto Company, priority 1995, dated 1997)

Legend:
Assay type in all cases: in vivo
[1] = test system: Common Chickweed; experiment: pre-emergence herbicide test; conditions: pre-emergence, 0.25 lb/A; read-out: % plant inhibition
In short: (§1)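 Soil-applied pre-emergence screen: compound added to cover topsoil over sown seeds, pans held on greenhouse bench with subirrigation, % inhibition scored ~2 weeks later.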

[2] = test system: Velvetleaf; experiment: pre-emergence herbicide test; conditions: Abutilon theophrasti, pre-emergence, 0.25 lb/A; read-out: % plant inhibition
In short: as §1

[3] = test system: Bedstraw Catchweed; experiment: pre-emergence herbicide test; conditions: Galium aparine, pre-emergence, 0.25 lb/A; read-out: % plant inhibition
In short: as §1

[4] = test system: Giant Foxtail; experiment: pre-emergence herbicide test; conditions: Setaria faberi, pre-emergence, 0.25 lb/A; read-out: % plant inhibition
In short: as §1

[5] = test system: Green Foxtail; experiment: pre-emergence herbicide test; conditions: Setaria viridis, pre-emergence; 0.25 lb/A; read-out: % plant inhibition
In short: as §1

[6] = test system: Seedling Johnsongrass; experiment: pre-emergence herbicide test; conditions: Sorghum halepense, pre-emergence, 0.25 lb/A; read-out: % plant inhibition
In short: as §1

[7] = test system: Blackgrass; experiment: pre-emergence herbicide test; conditions: Alopecurus myosuroides, pre-emergence, 0.25 lb/A; read-out: % plant inhibition
In short: as §1

[8] = test system: Downy Brome; experiment: pre-emergence herbicide test; conditions: Bromus tectorum, pre-emergence, 0.25 lb/A; read-out: % plant inhibition
In short: as §1

[9] = test system: Wheat; experiment: pre-emergence herbicide test; conditions: Triticum aestivum, pre-emergence, 0.25 lb/A; read-out: % plant inhibition
In short: as §1

[10] = test system: Barnyardgrass; experiment: pre-emergence herbicide test; conditions: Echinochloa crus-galli, pre-emergence, 0.25 lb/A; read-out: % plant inhibition
In short: as §1

[11] = test system: Wild Oats; experiment: pre-emergence herbicide test; conditions: Avena fatua, pre-emergence, 0.25 lb/A; read-out: % plant inhibition
In short: as §1

[12] = test system: Cocklebur; experiment: pre-emergence herbicide test; conditions: Xanthium strumarium, pre-emergence, 0.25 lb/A; read-out: % plant inhibition
In short: as §1

[13] = test system: Corn; experiment: pre-emergence herbicide test; conditions: Zea mays, pre-emergence, 0.25 lb/A; read-out: % plant inhibition
In short: as §1

[14] = test system: Soybean; experiment: pre-emergence herbicide test; conditions: Glycine max, pre-emergence, 0.25 lb/A; read-out: % plant inhibition
In short: as §1

[15] = test system: Birdseye Speedwell; experiment: pre-emergence herbicide test; conditions: pre-emergence, 0.25 lb/A; read-out: % plant inhibition
In short: as §1

[16] = test system: Rape; experiment: pre-emergence herbicide test; conditions: pre-emergence, 0.25 lb/A; read-out: % plant inhibition
In short: as §1

[17] = test system: Morning Glory; experiment: pre-emergence herbicide test; conditions: Ipomoea, pre-emergence, 0.25 lb/A; read-out: % plant inhibition
In short: as §1

[18] = test system: Common Chickweed; experiment: post-emergence herbicide test; conditions: post-emergence, 0.25 lb/A; read-out: % plant inhibition
In short: (§2)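 Each pan is moved to a spraying chamber when plants are two to three weeks old and sprayed by atomizer at 10 psig, delivering 1870 L/Ha containing about 0.4% by volume emulsifier. Greenhouse-grown from seed; percent inhibition scored.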

[19] = test system: Velvetleaf; experiment: post-emergence herbicide test; conditions: Abutilon theophrasti, post-emergence, 0.25 lb/A; read-out: % plant inhibition
In short: as §2

[20] = test system: Bedstraw Catchweed; experiment: post-emergence herbicide test; conditions: Galium aparine, post-emergence, 0.25 lb/A; read-out: % plant inhibition
In short: as §2

[21] = test system: Giant Foxtail; experiment: post-emergence herbicide test; conditions: Setaria faberi, post-emergence, 0.25 lb/A; read-out: % plant inhibition
In short: as §2

[22] = test system: Green Foxtail; experiment: post-emergence herbicide test; conditions: Setaria viridis, post-emergence, 0.25 lb/A; read-out: % plant inhibition
In short: as §2

[23] = test system: Seedling Johnsongrass; experiment: post-emergence herbicide test; conditions: Sorghum halepense, post-emergence, 0.25 lb/A; read-out: % plant inhibition
In short: as §2

[24] = test system: Blackgrass; experiment: post-emergence herbicide test; conditions: Alopecurus myosuroides, post-emergence, 0.25 lb/A; read-out: % plant inhibition
In short: as §2

[25] = test system: Downy Brome; experiment: post-emergence herbicide test; conditions: Bromus tectorum, post-emergence, 0.25 lb/A; read-out: % plant inhibition
In short: as §2

[26] = test system: Wheat; experiment: post-emergence herbicide test; conditions: Triticum aestivum, post-emergence, 0.25 lb/A; read-out: % plant inhibition
In short: as §2

[27] = test system: Barnyardgrass; experiment: post-emergence herbicide test; conditions: Echinochloa crus-galli, post-emergence, 0.25 lb/A; read-out: % plant inhibition
In short: as §2

[28] = test system: Wild Oats; experiment: post-emergence herbicide test; conditions: Avena fatua, post-emergence, 0.25 lb/A; read-out: % plant inhibition
In short: as §2

[29] = test system: Cocklebur; experiment: post-emergence herbicide test; conditions: Xanthium strumarium, post-emergence, 0.25 lb/A; read-out: % plant inhibition
In short: as §2

[30] = test system: Corn; experiment: post-emergence herbicide test; conditions: Zea mays, post-emergence, 0.25 lb/A; read-out: % plant inhibition
In short: as §2

[31] = test system: Soybean; experiment: post-emergence herbicide test; conditions: Glycine max, post-emergence, 0.25 lb/A; read-out: % plant inhibition
In short: as §2

[32] = test system: Birdseye Speedwell; experiment: post-emergence herbicide test; conditions: post-emergence, 0.25 lb/A; read-out: % plant inhibition
In short: as §2

[33] = test system: Rape; experiment: post-emergence herbicide test; conditions: post-emergence, 0.25 lb/A; read-out: % plant inhibition
In short: as §2

[34] = test system: Morning Glory; experiment: post-emergence herbicide test; conditions: Ipomoea, post-emergence, 0.25 lb/A; read-out: % plant inhibition
In short: as §2

SMILES	inhibition at 280.212 g/ha [1] [%]	inhibition at 280.212 g/ha [2] [%]	inhibition at 280.212 g/ha [3] [%]	inhibition at 280.212 g/ha [4] [%]	inhibition at 280.212 g/ha [5] [%]	inhibition at 280.212 g/ha [6] [%]	inhibition at 280.212 g/ha [7] [%]	inhibition at 280.212 g/ha [8] [%]	inhibition at 280.212 g/ha [9] [%]	inhibition at 280.212 g/ha [10] [%]	inhibition at 280.212 g/ha [11] [%]	inhibition at 280.212 g/ha [12] [%]	inhibition at 280.212 g/ha [13] [%]	inhibition at 280.212 g/ha [14] [%]	inhibition at 280.212 g/ha [15] [%]	inhibition at 280.212 g/ha [16] [%]	inhibition at 280.212 g/ha [17] [%]	inhibition at 280.212 g/ha [18] [%]	inhibition at 280.212 g/ha [19] [%]	inhibition at 280.212 g/ha [20] [%]	other results
Cc1c(-c2cc(C(=O)OCC(C)C)c(Cl)cc2F)nn(C)c1C(F)(F)F [Compound 45]	80	98	98	100	100	98	100	98	0	75	50	50	0	0	100	5	30	100	100	100	inhibition at 280.212 g/ha [21]: 80%; inhibition at 280.212 g/ha [22]: 100%; inhibition at 280.212 g/ha [23]: 95%; inhibition at 280.212 g/ha [24]: 98%; inhibition at 280.212 g/ha [25]: 95%; inhibition at 280.212 g/ha [26]: 17%; inhibition at 280.212 g/ha [27]: 75%; inhibition at 280.212 g/ha [28]: 80%; inhibition at 280.212 g/ha [29]: 100%; inhibition at 280.212 g/ha [30]: 55%; inhibition at 280.212 g/ha [31]: 35%; inhibition at 280.212 g/ha [32]: 100%; inhibition at 280.212 g/ha [33]: 50%; inhibition at 280.212 g/ha [34]: 50%
CCCCCOC(=O)c1cc(-c2nn(C)c(C(F)(F)F)c2C)c(F)cc1Cl [Compound 48]	95	95	45	99	100	98	60	90	0	100	45	45	35	0	100	5	99	65	100	80	inhibition at 280.212 g/ha [21]: 99%; inhibition at 280.212 g/ha [22]: 98%; inhibition at 280.212 g/ha [23]: 85%; inhibition at 280.212 g/ha [24]: 70%; inhibition at 280.212 g/ha [25]: 65%; inhibition at 280.212 g/ha [26]: 16%; inhibition at 280.212 g/ha [27]: 60%; inhibition at 280.212 g/ha [28]: 75%; inhibition at 280.212 g/ha [29]: 90%; inhibition at 280.212 g/ha [30]: 7%; inhibition at 280.212 g/ha [31]: 70%; inhibition at 280.212 g/ha [32]: 100%; inhibition at 280.212 g/ha [33]: 60%; inhibition at 280.212 g/ha [34]: 75%
